From ChEMBL document CHEMBL1201862, “PubChem BioAssay data set” (2004)
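A five-concentration, 48-hour dose response in 96-well plates underlies each endpoint, interpolated linearly between surrounding concentrations. Abbreviation: GI50, concentration required for 50% inhibition of growth.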 The source made the active and inactive calls. Cut-off read from the data, not from the text of the source: active = GI50 up to about 1.1 µM and inactive = higher.

Experiments:
Experiment in all cases: NCI tumour cell line growth inhibition, 48 h
[1] = test system: CAKI-1
[2] = test system: M14
[3] = test system: NCI-H460
[4] = test system: KM12
[5] = test system: HCT-15
[6] = test system: SNB-19
[7] = test system: IGROV-1
[8] = test system: A549
[9] = test system: OVCAR-3
[10] = test system: SNB-75
[11] = test system: HCT-116
[12] = test system: CCRF-CEM
[13] = test system: NCI-H23
[14] = test system: HOP-62
[15] = test system: OVCAR-5
[16] = test system: NCI-H226
[17] = test system: OVCAR-8
[18] = test system: Hs-578T
[19] = test system: SK-OV-3

Compound	GI50 [1]	GI50 [2]	GI50 [3]	GI50 [4]	GI50 [5] [µM]	GI50 [6]	GI50 [7]	GI50 [8]	GI50 [9]	GI50 [10]	GI50 [11]	GI50 [12]	GI50 [13]	GI50 [14]	GI50 [15]	GI50 [16]	GI50 [17]	GI50 [18]	GI50 [19]
CN(C)CCNC(=O)c1cccc2nc3cccc(F)c3nc12	0.973 µM (active)	2.01 µM (inactive)	0.579 µM (active)	1.42 µM (inactive)	1.16	2.21 µM (inactive)	1.6 µM (inactive)	0.53 µM (active)	1.99 µM (inactive)	2.62 µM (inactive)	0.542 µM (active)	1.11 µM (active)	1.5 µM (inactive)	1.97 µM (inactive)	2.6 µM (inactive)	1.24 µM (inactive)	0.843 µM (active)	1.41 µM (inactive)	–
O=C(c1ccccc1)c1c(C(F)(F)F)[n+]([O-])c2ccccc2[n+]1[O-]	0.446 µM (active)	2.58 µM (inactive)	0.855 µM (active)	0.451 µM (active)	0.785	1.44 µM (inactive)	0.188 µM (active)	0.634 µM (active)	0.343 µM (active)	1.26 µM (inactive)	0.977 µM (active)	0.495 µM (active)	1.43 µM (inactive)	1.08 µM (active)	1.31 µM (inactive)	1.51 µM (inactive)	0.543 µM (active)	3.15 µM (inactive)	–
N#Cc1nc(C#N)c(NC(=O)c2ccccc2C(=O)O)[nH]1	> 100 µM (inactive)	> 100 µM (inactive)	–	> 100 µM (inactive)	–	> 100 µM (inactive)	> 100 µM (inactive)	> 100 µM (inactive)	> 100 µM (inactive)	> 100 µM (inactive)	> 100 µM (inactive)	> 100 µM (inactive)	> 100 µM (inactive)	> 100 µM (inactive)	> 100 µM (inactive)	> 100 µM (inactive)	> 100 µM (inactive)	> 100 µM (inactive)	> 100 µM (inactive)
CCOC(=O)c1c(SCCN2CCOCC2)n(-c2ccccc2)c(=S)n(-c2ccccc2)c1=O	–	44.8 µM (inactive)	> 100 µM (inactive)	> 100 µM (inactive)	20	> 100 µM (inactive)	42.5 µM (inactive)	> 100 µM (inactive)	49.2 µM (inactive)	76.2 µM (inactive)	–	30.1 µM (inactive)	32.4 µM (inactive)	–	> 100 µM (inactive)	38.5 µM (inactive)	> 100 µM (inactive)	37.8 µM (inactive)	–
Cc1cc2c(cc1C)C(=O)/C(=C/c1ccccc1C(=O)O)C2	72.4 µM (inactive)	> 100 µM (inactive)	40.5 µM (inactive)	55.5 µM (inactive)	36.6	34.7 µM (inactive)	> 100 µM (inactive)	67.5 µM (inactive)	31.7 µM (inactive)	30 µM (inactive)	37.9 µM (inactive)	30.9 µM (inactive)	19.6 µM (inactive)	42.4 µM (inactive)	23.6 µM (inactive)	15.3 µM (inactive)	38.4 µM (inactive)	34 µM (inactive)	–
O=C1C=C2CC[C@H]3[C@@H]4CC[C@H](OC(=O)c5cccc6cc7ccccc7nc56)[C@H]4CC[C@@H]3[C@H]2CC1	–	> 100 µM (inactive)	–	> 100 µM (inactive)	> 100	> 100 µM (inactive)	> 100 µM (inactive)	> 100 µM (inactive)	39.5 µM (inactive)	> 100 µM (inactive)	> 100 µM (inactive)	24.7 µM (inactive)	> 100 µM (inactive)	> 100 µM (inactive)	> 100 µM (inactive)	> 100 µM (inactive)	> 100 µM (inactive)	> 100 µM (inactive)	> 100 µM (inactive)
COc1cc2c(cc1O)C1CC(CC3CCCCN31)OC(=O)/C=C\c1ccc(O)c-2c1 (stereo not given)	23.1 µM (inactive)	19.6 µM (inactive)	37.1 µM (inactive)	16.4 µM (inactive)	36.9	63 µM (inactive)	24.7 µM (inactive)	57 µM (inactive)	21.3 µM (inactive)	10.2 µM (inactive)	27.9 µM (inactive)	30.1 µM (inactive)	64 µM (inactive)	–	58.3 µM (inactive)	41.4 µM (inactive)	21.6 µM (inactive)	18.3 µM (inactive)	31.2 µM (inactive)
COC(=O)C1=C(O)C(C(=O)OC)[C@]2(O)[C@H](C(=O)OC)[C@H]1C[C@@H](c1ccc(OC)cc1)[C@H]2C(=O)OC (stereo not given in full)	19.5 µM (inactive)	23.8 µM (inactive)	17.7 µM (inactive)	19.5 µM (inactive)	21.9	29.4 µM (inactive)	34.6 µM (inactive)	20.5 µM (inactive)	–	27.9 µM (inactive)	16.3 µM (inactive)	–	23.6 µM (inactive)	29.9 µM (inactive)	20.7 µM (inactive)	30.3 µM (inactive)	30.7 µM (inactive)	19.9 µM (inactive)	29 µM (inactive)
CC(C)(C)c1cc(OCc2nnc3sc(-c4ccc(Cl)cc4)nn23)c(Cl)cc1OCc1nnc2sc(-c3ccc(Cl)cc3)nn12	2.3 µM (inactive)	3.06 µM (inactive)	3.06 µM (inactive)	2.47 µM (inactive)	3.31	3.59 µM (inactive)	3.82 µM (inactive)	4.21 µM (inactive)	2.47 µM (inactive)	2.19 µM (inactive)	3.54 µM (inactive)	–	4.94 µM (inactive)	5.87 µM (inactive)	29.7 µM (inactive)	17.3 µM (inactive)	3.93 µM (inactive)	5.7 µM (inactive)	4.06 µM (inactive)
CCOC1OC(CO[Si](C)(C)C(C)(C)C)C(O)CC1n1ccc(=O)[nH]c1=O (stereo not given)	56.4 µM (inactive)	26.8 µM (inactive)	81.3 µM (inactive)	88.7 µM (inactive)	35.6	> 100 µM (inactive)	21.5 µM (inactive)	51.5 µM (inactive)	43.8 µM (inactive)	> 100 µM (inactive)	17.1 µM (inactive)	–	> 100 µM (inactive)	–	> 100 µM (inactive)	> 100 µM (inactive)	33.7 µM (inactive)	> 100 µM (inactive)	–
CC(=O)OC12CC(C(F)(F)F)(C(F)(F)F)OC1(OC(C)=O)CC(C(F)(F)F)(C(F)(F)F)O2 (stereo not given)	–	3.72 µM (inactive)	4.05 µM (inactive)	2.33 µM (inactive)	11.5	3.15 µM (inactive)	1.41 µM (inactive)	1.26 µM (inactive)	2.02 µM (inactive)	11.1 µM (inactive)	3.66 µM (inactive)	2.04 µM (inactive)	1.23 µM (inactive)	25.4 µM (inactive)	9.29 µM (inactive)	6.17 µM (inactive)	2.71 µM (inactive)	13.3 µM (inactive)	4.94 µM (inactive)
O=C(O)CC(NC(=O)C(F)(F)F)C(=O)NC1Cc2ccccc2OC1=O (stereo not given)	> 100 µM (inactive)	> 100 µM (inactive)	> 100 µM (inactive)	> 100 µM (inactive)	> 100	> 100 µM (inactive)	> 100 µM (inactive)	> 100 µM (inactive)	> 100 µM (inactive)	> 100 µM (inactive)	–	–	> 100 µM (inactive)	> 100 µM (inactive)	> 100 µM (inactive)	> 100 µM (inactive)	> 100 µM (inactive)	> 100 µM (inactive)	> 100 µM (inactive)
C#CCOC(=O)C(N)CCSC (stereo not given)	> 100 µM (inactive)	> 100 µM (inactive)	–	> 100 µM (inactive)	–	–	> 100 µM (inactive)	> 100 µM (inactive)	> 100 µM (inactive)	> 100 µM (inactive)	> 100 µM (inactive)	> 100 µM (inactive)	> 100 µM (inactive)	> 100 µM (inactive)	> 100 µM (inactive)	> 100 µM (inactive)	> 100 µM (inactive)	> 100 µM (inactive)	> 100 µM (inactive)
CCOc1cc(NC(C)=O)ccc1C(=O)NN1C(=O)C(Oc2ccccc2)C1c1ccccc1 (stereo not given)	52.4 µM (inactive)	–	15.3 µM (inactive)	> 100 µM (inactive)	> 100	–	> 100 µM (inactive)	–	> 100 µM (inactive)	92.3 µM (inactive)	94.4 µM (inactive)	28.6 µM (inactive)	> 100 µM (inactive)	> 100 µM (inactive)	> 100 µM (inactive)	57.8 µM (inactive)	> 100 µM (inactive)	> 100 µM (inactive)	> 100 µM (inactive)
CO[C@H]1C=C[C@]23c4cc5c(cc4CN(CC2O)[C@@H]3C1)OCO5 (stereo not given in full)	3.59 µM (inactive)	3.3 µM (inactive)	1.53 µM (inactive)	3.09 µM (inactive)	1.91	2.17 µM (inactive)	1.37 µM (inactive)	3.2 µM (inactive)	1.9 µM (inactive)	2.36 µM (inactive)	1.97 µM (inactive)	0.314 µM (active)	4.49 µM (inactive)	–	5.47 µM (inactive)	6.9 µM (inactive)	3.08 µM (inactive)	2.97 µM (inactive)	0.388 µM (active)
CC(=O)Nc1sc(Br)cc1S(=O)(=O)c1ccc(Cl)cc1	> 100 µM (inactive)	15.2 µM (inactive)	33.7 µM (inactive)	20.3 µM (inactive)	> 10	46.6 µM (inactive)	44.4 µM (inactive)	29.2 µM (inactive)	20.5 µM (inactive)	28.2 µM (inactive)	26.1 µM (inactive)	35.1 µM (inactive)	29.4 µM (inactive)	–	26.2 µM (inactive)	19.1 µM (inactive)	26.9 µM (inactive)	20 µM (inactive)	43.1 µM (inactive)
